In brackets after ≈: the same amount, converted by molar mass.
Assays:
human TLR8 = molecular target: T1, human TLR8 (Homo sapiens, UniProt Q9NR97); assay: HEK293-Blue-hTLR-8 cells assay (SEAP reporter, R848 stimulation); format: cell-based; details: HEK293-Blue-hTLR8 cells, R848, 20 hrs
T1 construct: host or cells: HEK293 (HEK-Blue hTLR8)
T1 sequence (Q9NR97 27-1041): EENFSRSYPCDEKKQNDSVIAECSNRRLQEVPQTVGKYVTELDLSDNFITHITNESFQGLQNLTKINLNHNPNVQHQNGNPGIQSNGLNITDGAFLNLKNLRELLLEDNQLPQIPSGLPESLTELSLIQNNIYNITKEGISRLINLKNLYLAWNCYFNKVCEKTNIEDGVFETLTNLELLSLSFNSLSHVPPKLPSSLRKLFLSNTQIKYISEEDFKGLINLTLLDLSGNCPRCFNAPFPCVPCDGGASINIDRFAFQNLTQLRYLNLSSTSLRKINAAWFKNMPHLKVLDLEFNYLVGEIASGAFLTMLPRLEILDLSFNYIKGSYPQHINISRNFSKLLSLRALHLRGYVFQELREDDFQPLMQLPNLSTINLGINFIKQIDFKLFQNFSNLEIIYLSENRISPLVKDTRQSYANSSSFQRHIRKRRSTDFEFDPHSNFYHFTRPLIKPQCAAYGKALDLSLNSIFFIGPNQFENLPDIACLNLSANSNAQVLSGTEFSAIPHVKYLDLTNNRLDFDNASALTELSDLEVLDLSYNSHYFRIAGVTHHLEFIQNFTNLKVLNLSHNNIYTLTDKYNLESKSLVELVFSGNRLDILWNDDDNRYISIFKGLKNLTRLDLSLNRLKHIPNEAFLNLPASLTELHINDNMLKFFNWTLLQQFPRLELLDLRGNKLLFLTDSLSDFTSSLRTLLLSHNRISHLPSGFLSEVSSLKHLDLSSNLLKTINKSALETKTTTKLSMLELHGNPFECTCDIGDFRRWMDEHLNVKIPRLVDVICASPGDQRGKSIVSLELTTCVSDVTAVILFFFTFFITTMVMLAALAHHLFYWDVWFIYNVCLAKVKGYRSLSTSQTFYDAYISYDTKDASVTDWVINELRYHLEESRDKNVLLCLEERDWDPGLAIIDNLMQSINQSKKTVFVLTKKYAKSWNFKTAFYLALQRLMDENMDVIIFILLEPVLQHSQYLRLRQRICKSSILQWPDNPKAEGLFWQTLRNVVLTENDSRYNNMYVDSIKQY
Protocol: The following tests were carried out in order to determine the activity of the compounds of formula (I) in HEK293-Blue-hTLR-7/8/9 cells assay.
HEK293-Blue-hTLR-8 Cells Assay:
A stable HEK293-Blue-hTLR-8 cell line was purchased from InvivoGen (Cat. #: hkb-htlr8, San Diego, Calif., USA). These cells were originally designed for studying the stimulation of human TLR8 by monitoring the activation of NF-κB. A SEAP (secreted embryonic alkaline phosphatase) reporter gene was placed under the control of the IFN-β minimal promoter fused to five NF-κB and AP-1-binding sites. The SEAP was induced by activating NF-κB and AP-1 via stimulating HEK-Blue hTLR8 cells with TLR8 ligands. Therefore the reporter expression was declined by TLR8 antagonist under the stimulation of a ligand, such as R848, for incubation of 20 hrs. The cell culture supernatant SEAP reporter activity was determined using QUANTI-Blue™ kit (Cat #. rep-qbl, Invivogen, San Diego, Calif., USA) at a wavelength of 640 nm, a detection medium that turns purple or blue in the presence of alkaline phosphatase.
HEK293-Blue-hTLR8 cells were incubated at a density of 250,000˜450,000 cells/mL in a volume of 170 μL in a 96-well plate in Dulbecco's Modified Eagle's medium (DMEM) containing 4.5 g/L glucose, 50 U/mL penicillin, […], […], 2 mM L-glutamine, 10% (v/v) heat-inactivated fetal bovine serum with addition of 20 μL test compound in a serial dilution in the presence of final DMSO at 1% and 10 μL of 60 μM R848 in above DMEM, perform incubation under 37° C. in a CO2 incubator for 20 hrs. Then 20 μL of the supernatant from each well was incubated with 180 μL Quanti-blue substrate solution at 37° C. for 2 hrs and the absorbance was read at 620˜655 nm using a spectrophotometer. The signalling pathway that TLR8 activation leads to downstream NF-KB activation has been widely accepted, and therefore similar reporter assay was modified for evaluating TLR8 antagonist.

LYSA solubility assay = format: physicochemical; details: for solubility thermodynamic: 0.05 M phosphate buffer, pH 6.5, aqueous buffer, thermodynamic from solid
Protocol: LYSA study is used to determine the aqueous solubility of tested compounds. Samples are prepared in duplicate from 10 mM DMSO stock solution. After evaporation of DMSO with a centrifugal vacuum evaporator, compounds are dissolved in a 0.05 M phosphate buffer (pH 6.5), stirred for one hr and shaken for two hrs. After one night, the solutions are filtered using a microtiter filter plate. Then the filtrate and its 1/10 dilution are analyzed by HPLC-UV. In addition, a four-point calibration curve is prepared from the 10 mM stock solutions and used for the solubility determination of the compounds. The results are in μg/mL. In case the percentage of sample measured in solution after evaporation divided by the calculated maximum of sample amount is bigger than 80%, the solubility is reported as bigger than this value.

Row | IC50 (human TLR8) [nM] | solubility thermodynamic (LYSA solubility assay) [µg/mL] | Structure (SMILES) | LYSA (LYSA solubility assay; 0.05 M phosphate buffer (pH 6.5)) [µg/mL]
1 | 6 | > 585 | C[C@@H]1CN(c2ccc(C(F)(F)F)c3ncccc23)C[C@H](C(=O)NC2CNC[C@@H]2F)O1 (stereo partly drawn) [Example 2, cis-(2R,6R)-N-(4-fluoropyrrolidin-3-yl)-6-methyl-4-[8-(trifluoromethyl)-5-quinolyl]morpholine-2-carboxamide] | –
2 | < 3 | – | C[C@H]1C[C@@H](N)CN(c2ccc(C(F)(F)F)c3ncccc23)C1 [Example 1, (3R,5S)-5-methyl-1-[8-(trifluoromethyl)-5-quinolyl]piperidin-3-amine] | –
3 | < 3 | > 550 | C[C@@H]1CN(c2ccc(Br)c3ncccc23)C[C@H](C(=O)NC2CCN(C)CC2)O1 [Example 42, (2R,6R)-4-(8-bromo-5-quinolyl)-6-methyl-N-(1-methyl-4-piperidyl)morpholine-2-carboxamide] | –
4 | < 3 | > 580 | C[C@@H]1CN(c2ccc(C(F)(F)F)c3ncccc23)C[C@H](C(=O)N[C@@H]2CNC[C@@H]2F)O1 (single isomer, unassigned) [Example 2A] | –
5 | 62 | > 740 | C[C@@H]1CN(c2ccc(C(F)(F)F)c3ncccc23)C[C@H](C(=O)NCC2COCCN2C)O1 (stereo partly drawn) [Example 11, (2R,6R)-6-methyl-N-[(4-methylmorpholin-3-yl)methyl]-4-[8-(trifluoromethyl)-5-quinolyl]morpholine-2-carboxamide] | –
6 | < 3 | > 625 | C[C@@H]1CN(c2ccc(C(F)(F)F)c3ncccc23)C[C@H](C(=O)NCC2CNCCO2)O1 (stereo partly drawn) [Example 48, (2R,6R)-6-methyl-N-(morpholin-2-ylmethyl)-4-[8-(trifluoromethyl)-5-quinolyl]morpholine-2-carboxamide] | –
7 | 14 | 565 (≈ 1230 µM) | C[C@@H]1CN(c2ccc(C(F)(F)F)c3ncccc23)C[C@H](C(=O)NCC2CNCC2(F)F)O1 (stereo partly drawn) [Example 29, (2R,6R)-N-[(4,4-difluoropyrrolidin-3-yl)methyl]-6-methyl-4-[8-(trifluoromethyl)-5-quinolyl]morpholine-2-carboxamide] | –
8 | < 3 | > 650 | C[C@@H]1CN(c2ccc(I)c3ncccc23)C[C@H](C(=O)NC2CCN(C)CC2)O1 [Example 38, (2R,6R)-4-(8-iodo-5-quinolyl)-6-methyl-N-(1-methyl-4-piperidyl)morpholine-2-carboxamide] | –

Further lines, the compound ahead of its results:

Row | Structure (SMILES) | IC50 (human TLR8) [nM] | solubility thermodynamic (LYSA solubility assay) [µg/mL] | LYSA (LYSA solubility assay; 0.05 M phosphate buffer (pH 6.5)) [µg/mL]
9 | C[C@@H]1CN(c2ccc(I)c3ncccc23)C[C@H](C(=O)NCC2CN(C)CCO2)O1 (stereo partly drawn) [Example 39, (2R,6R)-4-(8-iodo-5-quinolyl)-6-methyl-N-[(4-methylmorpholin-2-yl)methyl]morpholine-2-carboxamide] | < 3 | > 625 | –
10 | C[C@@H]1CN(c2ccc(C(F)(F)F)c3ncccc23)C[C@H](C(=O)NC2CC3CCC(C2)N3)O1 (single isomer, unassigned) [Example 47A] | < 3 | > 620 | –
11 | C[C@@H]1CN(c2ccc(C(F)(F)F)c3ncccc23)C[C@H](C(=O)NC2C3CCC2CNC3)O1 (stereo partly drawn) [Example 31, (2R,6R)-N-(3-azabicyclo[3.2.1]octan-8-yl)-6-methyl-4-[8-(trifluoromethyl)-5-quinolyl]morpholine-2-carboxamide] | 9 | > 597 | –
12 | C[C@@H]1CN(c2ccc(C(F)(F)F)c3ncccc23)C[C@H](C(=O)N2CCC3(CCNCC3)CC2)O1 [Example 32, 3,9-diazaspiro[5.5]undecan-3-yl-[(2R,6R)-6-methyl-4-[8-(trifluoromethyl)-5-quinolyl]morpholin-2-yl]methanone] | 20 | > 640 | –
13 | CC(NC(=O)[C@H]1CN(c2ccc(C(F)(F)F)c3ncccc23)C[C@@H](C)O1)C1CN(C)CCO1 (single isomer, unassigned) [Example 35A] | 6 | > 600 | –
14 | Cc1ccc(N2C[C@@H](C)O[C@@H](C(=O)NC3CCN(C)CC3)C2)c2cccnc12 [Example 16, (2R,6R)-6-methyl-N-(1-methyl-4-piperidyl)-4-(8-methyl-5-quinolyl)morpholine-2-carboxamide] | 8 | > 450 | –
15 | C[C@@H]1CN(c2ccc(Cl)c3ncccc23)C[C@H](C(=O)NC2CCCNCC2)O1 (stereo partly drawn) [Example 25, (2R,6R)-N-(azepan-4-yl)-4-(8-chloro-5-quinolyl)-6-methyl-morpholine-2-carboxamide] | < 3 | > 470 | –
16 | C[C@@H]1CN(c2ccc(C(F)(F)F)c3ncccc23)C[C@H](C(=O)NCC(C)(C)N)O1 [Example 6, (2R,6R)-N-(2-amino-2-methyl-propyl)-6-methyl-4-[8-(trifluoromethyl)-5-quinolyl]morpholine-2-carboxamide] | 26 | > 640 | –
17 | C[C@@H]1CN(c2ccc(C(F)(F)F)c3ncccc23)C[C@H](C(=O)NC2CC3CCC(C2)N3)O1 (single isomer, unassigned) [Example 47B] | < 3 | – | >605.0
18 | C[C@@H]1CN(c2ccc(C(F)(F)F)c3ncccc23)C[C@H](C(=O)NC2C3CCCC2CNC3)O1 (stereo partly drawn) [Example 45, (2R,6R)-N-(3-azabicyclo[3.3.1]nonan-9-yl)-6-methyl-4-[8-(trifluoromethyl)-5-quinolyl]morpholine-2-carboxamide] | < 3 | > 660 | –
19 | C[C@@H]1CN(c2ccc([N+](=O)[O-])c3ncccc23)C[C@H](C(=O)NCC2CN(C)CCO2)O1 (stereo partly drawn) [Example 18, (2R,6R)-6-methyl-N-[(4-methylmorpholin-2-yl)methyl]-4-(8-nitro-5-quinolyl)morpholine-2-carboxamide] | < 3 | > 530 | –
20 | C[C@@H]1CN(c2ccc(C(F)(F)F)c3ncccc23)C[C@H](C(=O)NC2CC3COCC(C2)N3)O1 (stereo partly drawn) [Example 33, (2R,6R)-6-methyl-N-(3-oxa-9-azabicyclo[3.3.1]nonan-7-yl)-4-[8-(trifluoromethyl)-5-quinolyl]morpholine-2-carboxamide] | < 3 | 350 (≈ 754 µM) | –
21 | C[C@@H]1CN(c2ccc(C(F)(F)F)c3ncccc23)C[C@H](C(=O)NCCN2CCOCC2)O1 [Example 13, (2R,6R)-6-methyl-N-(2-morpholinoethyl)-4-[8-(trifluoromethyl)-5-quinolyl]morpholine-2-carboxamide] | 52 | > 725 | –
22 | Cc1ccc(N2C[C@@H](C)C[C@@H](N)C2)c2cccnc12 [Example 15, (3R,5S)-5-methyl-1-(8-methyl-5-quinolyl)piperidin-3-amine] | 15 | – | –
